Literature values, collected in patent US11998562B2 (priority 2021, dated 2024).
pIC50: −log10 of the molar value. Entries after “also recorded” stand apart in the source; their conditions may differ.

Columns and labels:
[1] = oral delivery
SARS-CoV = conditions: HAE cells; read-out: IC50, inhibition of SARS-CoV replication

CCC(CC)COC(=O)[C@H](C)N[P@](=O)(OC[C@H]1O[C@@](C#N)(c2ccc3c(N)ncnn23)[C@H](O)[C@@H]1O)Oc1ccccc1 [Remdesivir, 2-Ethylbutyl (2S)-2-{[(S)-{[(2R,3S,4R,5R)-5-(4-aminopyrrolo[2,1-f][1,2,4]triazin-7-yl)-5-cyano-3,4-dihydroxytetrahydrofuran-2-yl]methoxy}(phenoxy)phosphoryl]amino}propanoate]
first-pass clearance [1]: complete
pIC50 (SARS-CoV): 7.16
solubility in water: practically insoluble; also recorded: poorly water soluble
